Assays:
Format in all cases: cell-based
human GLP1R [1] = biological target: T1, human GLP1R (Homo sapiens, UniProt P43220); experiment: Human GLP1R DERET internalization assay
human GLP1R [2] = biological target: T1, human GLP1R; experiment: Human GLP1R DERET recycling assay; settings: for Receptor recycled mean: maximum receptor recycled as proportion of amount internalized; for T1/2 mean: rate at which receptor recycled back to the membrane after Exendin 9-39
human GLP1R (hGLP1R) [3] = biological target: T2, human GLP1R (hGLP1R) (Homo sapiens, UniProt P43220); experiment: Human GLP1R β-arrestin recruitment assay (PathHunter); set-up: GeneArt (insert) 93-0164 (CHO-K1-EA parental cells); 93-0491 (pCMV PK vector bundle); host or cells: PathHunter CHO-K1-EA parental cells, single clone 1; settings: for EC50: CHO-hGLP1R-β-arrestin cells
Target sequence in this assay (P43220 24-463): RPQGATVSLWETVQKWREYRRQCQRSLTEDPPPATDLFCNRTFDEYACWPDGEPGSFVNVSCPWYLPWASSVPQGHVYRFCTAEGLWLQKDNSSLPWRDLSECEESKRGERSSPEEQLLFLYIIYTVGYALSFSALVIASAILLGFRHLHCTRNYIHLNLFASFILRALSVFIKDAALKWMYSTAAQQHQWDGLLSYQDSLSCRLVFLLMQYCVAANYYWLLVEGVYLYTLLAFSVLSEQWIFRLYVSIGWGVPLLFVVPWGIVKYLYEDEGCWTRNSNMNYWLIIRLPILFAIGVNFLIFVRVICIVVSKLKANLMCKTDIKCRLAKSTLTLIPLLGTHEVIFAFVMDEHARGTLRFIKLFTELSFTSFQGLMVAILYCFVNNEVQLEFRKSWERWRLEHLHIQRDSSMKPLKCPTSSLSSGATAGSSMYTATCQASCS
Target sequence in this assay (P32121 whole entry partner): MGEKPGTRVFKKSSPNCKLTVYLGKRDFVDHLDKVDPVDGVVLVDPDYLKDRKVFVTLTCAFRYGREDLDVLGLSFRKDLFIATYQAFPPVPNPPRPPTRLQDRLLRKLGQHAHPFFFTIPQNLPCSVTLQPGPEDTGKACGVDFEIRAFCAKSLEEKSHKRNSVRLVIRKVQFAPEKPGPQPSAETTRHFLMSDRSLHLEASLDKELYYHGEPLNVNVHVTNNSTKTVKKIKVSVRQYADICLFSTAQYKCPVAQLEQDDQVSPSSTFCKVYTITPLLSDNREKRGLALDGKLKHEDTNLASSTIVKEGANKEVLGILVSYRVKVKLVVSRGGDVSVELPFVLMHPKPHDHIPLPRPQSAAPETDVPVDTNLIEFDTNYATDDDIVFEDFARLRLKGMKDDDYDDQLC
Description: The extent to which agonists recruited β-arrestin was measured using the PathHunter® β-arrestin assay (DiscoverX). This assay measures binding of β-arrestin to the receptor using an enzyme complementation approach. […] When β-arrestin is recruited to the receptor the enzyme becomes active and generates luminescence in the presence of a chemiluminescent substrate (PathHunter® Detection Kit, DiscoverX cat #93-0001). Luminescence can be measured on a relevant detector. […] The following day, agonists were prepared at 5 times the final required concentration. To generate triplicate dose response curves, compounds were serially diluted 3-fold in assay buffer (HBSS, 10 mM Hepes and 0.1% BSA), then added to the cell assay plate to a final volume of 25 μL and final top concentrations starting at 3 μM or less, depending on the compound. […] The plate was incubated at 37° C., 5% CO2 with humidity for 2 h after adding the compounds to the cells. […] The plate was incubated for an additional hour in the dark at RT. […] Curve fitting for EC50 determinations was performed using GraphPad Prism. The 4-parameter logistic model, Hill slope was used: Y=Bottom+(Top−Bottom)/(1+10^((Log EC50−X)*Hill Slope)), where Y is the functional response; X is the compound concentration; bottom is A0 or the minimum value (at 0 dose); top is Ainf or the maximum value (at infinite dose); EC50 is the point of inflection (i.e., the point on the sigmoid shaped curve halfway between A0 and Ainf). The EC50 value was calculated in μM.

human GLP1R (hGLP1R) [4] = biological target: T2, human GLP1R (hGLP1R); experiment: Human GLP1R cAMP agonist assay (GloSensor)
Target sequence in this assay (P43220 24-463): as the sequence (P43220 24-463) above
Description: Compounds described herein were tested in the following cellular assays that measures the intracellular cAMP concentration. The cAMP is generated by the activation of GLP1R. EC50 is defined as the concentration of the compound that leads to half of the maximum response (after baseline correction).
The agonist activity of compounds was determined using the GloSensor™ cAMP Assay (Promega Corp.), which measures changes in the intracellular concentration of cAMP after ligand activation of GPCRs. The assay uses a biosensor encoded by pGloSensor™-22F cAMP plasmid (Promega, cat #E2301) with cAMP binding domains fused to a mutant form of Photinus pyralis luciferase. Binding to cAMP causes conformational changes that promote large increases in light output, which can be measured by a luminescence detector. […] The assay was started the following morning by adding an equal volume of CO2-independent media containing 4% v/v dilution of the GloSensor substrate (Promega, cat #E1291) to all wells. The cell plate was incubated at RT for 2 h in the dark. The Biomek i7 (Beckman Coulter) instrument was used for the liquid handling steps. To generate duplicate dose response curves, 3-fold serially diluted compounds were added in to the cell assay plate to a final volume of 60 μL with final concentrations ranging from 100 nM through 0.03 pM in CO2-independent media containing 0.1% BSA, 0.5 mM IBMX and 0.4% DMSO. […] Curve fitting for EC50 determinations was performed in the Helios module of the software package DAVID. The 4-parameter logistic model, Hill slope was used: y=Ainf+(A0−Ainf)/(1+(x/AC50)^Hill Slope), where y is the functional response; x is the compound concentration; A0 is the minimum value (at 0 dose); Ainf is the maximum value (at infinite dose); AC50 corresponds to the point of inflection (i.e., the point on the sigmoid shaped curve halfway between A0 and Ainf). The EC50 value was represented by the AC50 value calculated from Helios in μM. Emax is the maximal activity detected within the concentration range, derived from the fitted curve.
The HEK293-SNAP-hGLP1R stable cell clone that yielded the desired response was used for human GLP1R cAMP agonist assay.

T1 sequence (P43220 24-463): as above

| EC50 (human GLP1R [1]; receptor internalization, HEK293-SNAP-hGLP1R-GloSensor cells) [nM] | SMILES | Emax (human GLP1R [1]) [%] | Receptor recycled mean (human GLP1R [2]) [%] | T1/2 mean (human GLP1R [2]) [h] | Emax (human GLP1R (hGLP1R) [3]) [%] | Emax (human GLP1R (hGLP1R) [4]) [%] | EC50 (human GLP1R (hGLP1R) [3]) [nM] |
| --- | --- | --- | --- | --- | --- | --- | --- |
|  | CC[C@H](C)[C@H](NC(=O)[C@H](Cc1ccccc1)NC(=O)[C@H](CCC(=O)O)NC(=O)[C@H](CCCCNC(=O)CCOCCOCCOCCOCCOCCOCCOCCOCCOCCOCCOCCOCCOCCOCCOCCOCCOCCOCCOCCOCCOCCOCCOCCOCCNC(=O)C(CCCCCCCCCCCC(=O)O)(CCCCCCCCCCCC(=O)O)C(=O)O)NC(=O)[C@H](C)NC(=O)[C@H](C)NC(=O)[C@H](CCC(N)=O)NC(=O)CNC(=O)[C@H](CCC(=O)O)NC(=O)[C@H](CC(C)C)NC(=O)[C@H](Cc1ccc(O)cc1)NC(=O)[C@H](CO)NC(=O)[C@H](CO)NC(=O)[C@@H](NC(=O)[C@H](CC(=O)O)NC(=O)[C@H](CO)NC(=O)[C@@H](NC(=O)[C@H](Cc1ccccc1)NC(=O)[C@@H](NC(=O)CNC(=O)[C@H](CCC(=O)O)NC(=O)C(C)(C)NC(=O)[C@@H](N)Cc1c[nH]cn1)[C@@H](C)O)[C@@H](C)O)C(C)C)C(=O)N[C@@H](C)C(=O)N[C@@H](Cc1c[nH]c2ccccc12)C(=O)N[C@@H](CC(C)C)C(=O)N[C@H](C(=O)N[C@@H](CCCNC(=N)N)C(=O)NCC(=O)N[C@@H](CCCNC(=N)N)C(=O)NCC(=O)O)C(C)C [Compound 7] | 77 | 71 | 1.27 | 82 |  |  |
|  | CC[C@H](C)[C@H](NC(=O)[C@H](Cc1ccccc1)NC(=O)[C@H](CCC(=O)O)NC(=O)[C@H](CCCCNC(=O)CCOCCOCCOCCOCCOCCOCCOCCOCCOCCOCCOCCOCCOCCOCCOCCOCCOCCOCCOCCOCCOCCOCCOCCOCCNC(=O)C(CCCCCCCCCCC(=O)O)(CCCCCCCCCCC(=O)O)C(=O)O)NC(=O)[C@H](C)NC(=O)[C@H](C)NC(=O)[C@H](CCC(N)=O)NC(=O)CNC(=O)[C@H](CCC(=O)O)NC(=O)[C@H](CC(C)C)NC(=O)[C@H](Cc1ccc(O)cc1)NC(=O)[C@H](CO)NC(=O)[C@H](CO)NC(=O)[C@@H](NC(=O)[C@H](CC(=O)O)NC(=O)[C@H](CO)NC(=O)[C@@H](NC(=O)[C@H](Cc1ccccc1)NC(=O)[C@@H](NC(=O)CNC(=O)[C@H](CCC(=O)O)NC(=O)C(C)(C)NC(=O)[C@@H](N)Cc1c[nH]cn1)[C@@H](C)O)[C@@H](C)O)C(C)C)C(=O)N[C@@H](C)C(=O)N[C@@H](Cc1c[nH]c2ccccc12)C(=O)N[C@@H](CC(C)C)C(=O)N[C@H](C(=O)N[C@@H](CCCNC(=N)N)C(=O)NCC(=O)N[C@@H](CCCNC(=N)N)C(=O)NCC(=O)O)C(C)C [Compound 6] | 92 | 70 | 1.15 | 75 | 111 | 70 |
|  | CCCCCCCCCCCC(CCCCCCCCCCC(=O)O)(C(=O)O)C(=O)NCCOCCOCCOCCOCCOCCOCCOCCOCCC(=O)NCCCC[C@H](NC(=O)[C@H](C)NC(=O)[C@H](C)NC(=O)[C@H](CCC(N)=O)NC(=O)CNC(=O)[C@H](CCC(=O)O)NC(=O)[C@H](CC(C)C)NC(=O)[C@H](Cc1ccc(O)cc1)NC(=O)[C@H](CO)NC(=O)[C@H](CO)NC(=O)[C@@H](NC(=O)[C@H](CC(=O)O)NC(=O)[C@H](CO)NC(=O)[C@@H](NC(=O)[C@H](Cc1ccccc1)NC(=O)[C@@H](NC(=O)CNC(=O)[C@H](CCC(=O)O)NC(=O)C(C)(C)NC(=O)[C@@H](N)Cc1c[nH]cn1)[C@@H](C)O)[C@@H](C)O)C(C)C)C(=O)N[C@@H](CCC(=O)O)C(=O)N[C@@H](Cc1ccccc1)C(=O)N[C@H](C(=O)N[C@@H](C)C(=O)N[C@@H](Cc1c[nH]c2ccccc12)C(=O)N[C@@H](CC(C)C)C(=O)N[C@H](C(=O)N[C@@H](CCCNC(=N)N)C(=O)NCC(=O)N[C@@H](CCCNC(=N)N)C(=O)NCC(=O)O)C(C)C)[C@@H](C)CC (stereo partly drawn) [Compound 4] | 100 | 65 |  | 84 | 119 |  |
| > 1000 | CC[C@H](C)[C@H](NC(=O)[C@H](Cc1ccccc1)NC(=O)[C@H](CCC(=O)O)NC(=O)[C@H](CCCCNC(=O)CCOCCOCCOCCOCCOCCOCCOCCOCCOCCOCCOCCOCCOCCOCCOCCOCCOCCOCCOCCOCCOCCOCCOCCOCCNC(=O)C(CCCCCCCCCCCCCCC(=O)O)(CCCCCCCCCCCCCCC(=O)O)C(=O)O)NC(=O)[C@H](C)NC(=O)[C@H](C)NC(=O)[C@H](CCC(N)=O)NC(=O)CNC(=O)[C@H](CCC(=O)O)NC(=O)[C@H](CC(C)C)NC(=O)[C@H](Cc1ccc(O)cc1)NC(=O)[C@H](CO)NC(=O)[C@H](CO)NC(=O)[C@@H](NC(=O)[C@H](CC(=O)O)NC(=O)[C@H](CO)NC(=O)[C@@H](NC(=O)[C@H](Cc1ccccc1)NC(=O)[C@@H](NC(=O)CNC(=O)[C@H](CCC(=O)O)NC(=O)C(C)(C)NC(=O)[C@@H](N)Cc1c[nH]cn1)[C@@H](C)O)[C@@H](C)O)C(C)C)C(=O)N[C@@H](C)C(=O)N[C@@H](Cc1c[nH]c2ccccc12)C(=O)N[C@@H](CC(C)C)C(=O)N[C@H](C(=O)N[C@@H](CCCNC(=N)N)C(=O)NCC(=O)N[C@@H](CCCNC(=N)N)C(=O)NCC(=O)O)C(C)C [Compound 9] | 22 |  |  | 37 | 107 | > 2000 |
|  | CC[C@H](C)[C@H](NC(=O)[C@H](Cc1ccccc1)NC(=O)[C@H](CCC(=O)O)NC(=O)[C@H](CCCCNC(=O)CCOCCOCCOCCOCCOCCOCCOCCOCCOCCOCCOCCOCCOCCOCCOCCOCCOCCOCCOCCOCCOCCOCCOCCOCCNC(=O)C(CCCCCCCCCCCCCC(=O)O)(CCCCCCCCCCCCCC(=O)O)C(=O)O)NC(=O)[C@H](C)NC(=O)[C@H](C)NC(=O)[C@H](CCC(N)=O)NC(=O)CNC(=O)[C@H](CCC(=O)O)NC(=O)[C@H](CC(C)C)NC(=O)[C@H](Cc1ccc(O)cc1)NC(=O)[C@H](CO)NC(=O)[C@H](CO)NC(=O)[C@@H](NC(=O)[C@H](CC(=O)O)NC(=O)[C@H](CO)NC(=O)[C@@H](NC(=O)[C@H](Cc1ccccc1)NC(=O)[C@@H](NC(=O)CNC(=O)[C@H](CCC(=O)O)NC(=O)C(C)(C)NC(=O)[C@@H](N)Cc1c[nH]cn1)[C@@H](C)O)[C@@H](C)O)C(C)C)C(=O)N[C@@H](C)C(=O)N[C@@H](Cc1c[nH]c2ccccc12)C(=O)N[C@@H](CC(C)C)C(=O)N[C@H](C(=O)N[C@@H](CCCNC(=N)N)C(=O)NCC(=O)N[C@@H](CCCNC(=N)N)C(=O)NCC(=O)O)C(C)C [Compound 8] |  |  |  |  | 106 |  |
|  | CCCCCCCCCCCC(CCCCCCCCCCC(=O)O)(C(=O)O)C(=O)NCCOCCOCCOCCOCCOCCOCCOCCOCCOCCOCCOCCOCCOCCOCCOCCOCCOCCOCCOCCOCCOCCOCCOCCOCCC(=O)NCCCC[C@H](NC(=O)[C@H](C)NC(=O)[C@H](C)NC(=O)[C@H](CCC(N)=O)NC(=O)CNC(=O)[C@H](CCC(=O)O)NC(=O)[C@H](CC(C)C)NC(=O)[C@H](Cc1ccc(O)cc1)NC(=O)[C@H](CO)NC(=O)[C@H](CO)NC(=O)[C@@H](NC(=O)[C@H](CC(=O)O)NC(=O)[C@H](CO)NC(=O)[C@@H](NC(=O)[C@H](Cc1ccccc1)NC(=O)[C@@H](NC(=O)CNC(=O)[C@H](CCC(=O)O)NC(=O)C(C)(C)NC(=O)[C@@H](N)Cc1c[nH]cn1)[C@@H](C)O)[C@@H](C)O)C(C)C)C(=O)N[C@@H](CCC(=O)O)C(=O)N[C@@H](Cc1ccccc1)C(=O)N[C@H](C(=O)N[C@@H](C)C(=O)N[C@@H](Cc1c[nH]c2ccccc12)C(=O)N[C@@H](CC(C)C)C(=O)N[C@H](C(=O)N[C@@H](CCCNC(=N)N)C(=O)NCC(=O)N[C@@H](CCCNC(=N)N)C(=O)NCC(=O)O)C(C)C)[C@@H](C)CC (stereo partly drawn) [Compound 1] |  | 65 |  |  | 105 |  |
|  | CCCCCCCCCCC[C@@](CCCCCCCCCCC(=O)O)(C(=O)O)C(=O)NCCOCCOCCOCCOCCOCCOCCOCCOCCOCCOCCOCCOCCOCCOCCOCCOCCOCCOCCOCCOCCOCCOCCOCCOCCC(=O)NCCCC[C@H](NC(=O)[C@H](C)NC(=O)[C@H](C)NC(=O)[C@H](CCC(N)=O)NC(=O)CNC(=O)[C@H](CCC(=O)O)NC(=O)[C@H](CC(C)C)NC(=O)[C@H](Cc1ccc(O)cc1)NC(=O)[C@H](CO)NC(=O)[C@H](CO)NC(=O)[C@@H](NC(=O)[C@H](CC(=O)O)NC(=O)[C@H](CO)NC(=O)[C@@H](NC(=O)[C@H](Cc1ccccc1)NC(=O)[C@@H](NC(=O)CNC(=O)[C@H](CCC(=O)O)NC(=O)C(C)(C)NC(=O)[C@@H](N)Cc1c[nH]cn1)[C@@H](C)O)[C@@H](C)O)C(C)C)C(=O)N[C@@H](CCC(=O)O)C(=O)N[C@@H](Cc1ccccc1)C(=O)N[C@H](C(=O)N[C@@H](C)C(=O)N[C@@H](Cc1c[nH]c2ccccc12)C(=O)N[C@@H](CC(C)C)C(=O)N[C@H](C(=O)N[C@@H](CCCNC(=N)N)C(=O)NCC(=O)N[C@@H](CCCNC(=N)N)C(=O)NCC(=O)O)C(C)C)[C@@H](C)CC [Compound 2] |  | 68 | 1.19 |  | 115 |  |
|  | CCCCCCCCCCC[C@](CCCCCCCCCCC(=O)O)(C(=O)O)C(=O)NCCOCCOCCOCCOCCOCCOCCOCCOCCOCCOCCOCCOCCOCCOCCOCCOCCOCCOCCOCCOCCOCCOCCOCCOCCC(=O)NCCCC[C@H](NC(=O)[C@H](C)NC(=O)[C@H](C)NC(=O)[C@H](CCC(N)=O)NC(=O)CNC(=O)[C@H](CCC(=O)O)NC(=O)[C@H](CC(C)C)NC(=O)[C@H](Cc1ccc(O)cc1)NC(=O)[C@H](CO)NC(=O)[C@H](CO)NC(=O)[C@@H](NC(=O)[C@H](CC(=O)O)NC(=O)[C@H](CO)NC(=O)[C@@H](NC(=O)[C@H](Cc1ccccc1)NC(=O)[C@@H](NC(=O)CNC(=O)[C@H](CCC(=O)O)NC(=O)C(C)(C)NC(=O)[C@@H](N)Cc1c[nH]cn1)[C@@H](C)O)[C@@H](C)O)C(C)C)C(=O)N[C@@H](CCC(=O)O)C(=O)N[C@@H](Cc1ccccc1)C(=O)N[C@H](C(=O)N[C@@H](C)C(=O)N[C@@H](Cc1c[nH]c2ccccc12)C(=O)N[C@@H](CC(C)C)C(=O)N[C@H](C(=O)N[C@@H](CCCNC(=N)N)C(=O)NCC(=O)N[C@@H](CCCNC(=N)N)C(=O)NCC(=O)O)C(C)C)[C@@H](C)CC [Compound 3] |  | 69 | 1.24 |  |  |  |

Reference: patent US20240247042A1, “GLUCAGON LIKE PEPTIDE COMPOUNDS” (Novartis AG, priority 2021, published 2024)
